Measurements: publication PMC8506611, “Discovery and Characterization of Novel Antagonists of the Proinflammatory Orphan Receptor GPR84” (ACS Pharmacology & Translational Science, 2021)
Several values for one entry are separate records, joined by “and”; a condition that tells them apart may be missing. Equal entries are not always repeated.

Key:
[1] = molecular target: T1, human GPR84-Gαi2 fusion protein (Homo sapiens, UniProt Q9NQS5); assay: [^35S]GTPγS binding assay, membranes of Flp-In TREx 293 cells expressing human GPR84-Gαi2; type: biochemical; conditions: for pA2: Gaddum/Schild analysis, shifts in potency of 2-HTP, mean ± SEM; for Gaddum/Schild slope: Schild plots versus 2-HTP
T1 sequence (Q9NQS5 whole entry, the tested form may be a part): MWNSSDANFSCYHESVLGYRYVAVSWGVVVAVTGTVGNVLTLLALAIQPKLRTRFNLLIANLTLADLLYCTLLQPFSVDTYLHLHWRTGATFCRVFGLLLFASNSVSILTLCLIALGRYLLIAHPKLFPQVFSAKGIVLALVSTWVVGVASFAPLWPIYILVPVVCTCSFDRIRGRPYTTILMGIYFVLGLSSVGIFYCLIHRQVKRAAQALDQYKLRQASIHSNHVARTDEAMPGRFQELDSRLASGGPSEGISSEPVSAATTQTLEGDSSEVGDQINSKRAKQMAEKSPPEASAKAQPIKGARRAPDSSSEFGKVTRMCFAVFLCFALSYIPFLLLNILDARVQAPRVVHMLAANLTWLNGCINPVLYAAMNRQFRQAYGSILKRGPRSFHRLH
T1 sequence (P04899 2-355, further chain): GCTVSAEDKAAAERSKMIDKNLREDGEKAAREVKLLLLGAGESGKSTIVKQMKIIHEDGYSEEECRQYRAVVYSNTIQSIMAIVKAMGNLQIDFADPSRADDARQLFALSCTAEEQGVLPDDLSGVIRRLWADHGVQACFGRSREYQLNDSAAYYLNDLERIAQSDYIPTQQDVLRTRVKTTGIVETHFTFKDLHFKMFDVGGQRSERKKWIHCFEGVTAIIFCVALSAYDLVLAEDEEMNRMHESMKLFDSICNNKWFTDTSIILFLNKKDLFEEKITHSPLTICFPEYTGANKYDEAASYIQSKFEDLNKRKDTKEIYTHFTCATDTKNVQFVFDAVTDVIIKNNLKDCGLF
Method: (§1) All data are presented as means ± SEM of at least three independent experiments. Data analysis and curve fitting was carried out using the GraphPad Prism software package version 8 (GraphPad, San Diego). […] In case of inhibition experiments with antagonists, an equivalent analysis was followed to fit an inverse sigmoidal curve. To perform the statistical analysis of curve parameters, data from multiple experiments were fitted independently and resulting curve fit values were analyzed with indicated tests. Antagonism experiments carried out with multiple defined concentrations of antagonist were fit to a global Gaddum/Schild EC50 shift equation to estimate pA2 values for the antagonist. For radioligand binding data, saturation binding curves were generated by fitting the specific binding, which was obtained by subtracting nonspecific from total binding, to a one site specific binding model that allows calculation of Kd values for the radioligand at wild-type and mutant receptors.

[2] = tested on: mouse GPR84-Gαi2 fusion protein; assay: [^3H]140 binding assay, membranes expressing mouse GPR84-Gαi2
Method: (§2) Binding was initiated by the addition of membranes (5 μg of protein per tube). All assays were performed at 25 °C for 1 h before termination by the addition of ice-cold PBS and vacuum filtration through GF/C glassfibre filter-bottom 96-well microplates. Plates were washed three times with ice-cold PBS then allowed to dry for 2–3 h at room temperature. MicroScint-20 was added to dried filter plates, and radioactivity was quantified by liquid scintillation spectrometry. Specific binding was defined as the difference between binding detected in the presence and absence of 10 μM compound 020.
All data are presented as means ± SEM of at least three independent experiments. Data analysis and curve fitting was carried out using the GraphPad Prism software package version 8 (GraphPad, San Diego). For functional assays the concentration–response data were plotted on a log axis, with the untreated vehicle control plotted at 1 log unit lower than the lowest ligand concentration and fitted to a three parameter sigmoidal curve with the Hill slope constrained to equal 1. In case of inhibition experiments with antagonists, an equivalent analysis was followed to fit an inverse sigmoidal curve. To perform the statistical analysis of curve parameters, data from multiple experiments were fitted independently and resulting curve fit values were analyzed with indicated tests. […]

[3] = tested on: Ala^102Thr, Gly^363Ser human GPR84; assay: [^3H]140 binding assay, Ala102Thr-Gly363Ser human GPR84-Gαi2
Method: (§3) The Stratagene QuikChange method (Stratagene, Agilent Technologies, Santa Clara, CA) was used to introduce alterations into FLAG-human GPR84-Gαi2 or FLAG-mouse GPR84-Gαi2. Primers utilized for mutagenesis were provided by MWG Operon (Acton, UK). Template DNA was digested with DpnI to leave only the newly synthesized mutated plasmid, and sequencing was carried out to confirm the introduction of the alterations.
as §2
All data are presented as means ± SEM of at least three independent experiments. Data analysis and curve fitting was carried out using the GraphPad Prism software package version 8 (GraphPad, San Diego). […] To perform the statistical analysis of curve parameters, data from multiple experiments were fitted independently and resulting curve fit values were analyzed with indicated tests. […]

[4] = tested on: parental Flp-In TREx 293 cells; assay: [^3H]140 binding assay, membranes from parental cells; conditions: parental cell membranes
Method: as §2

[5] = molecular target: T2, GPR84 in LPS-treated THP-1 cells (Homo sapiens, UniProt Q9NQS5); assay: [^3H]140 binding assay, membranes of LPS-treated THP-1 cells; conditions: LPS-treated THP-1 membranes
T2 construct: GPR84 expressed endogenously in human-derived cell lines and tissue; endogenous in cells; host or cells: THP-1 cells, 100 ng/mL LPS for 24 h, membranes
T2 sequence (Q9NQS5 whole entry): as the sequence (Q9NQS5 whole entry, the tested form may be a part) above
Method: as §1

[6] = tested on: mouse GPR84-Gαi2 fusion protein; assay: [^35S]GTPγS binding assay, membranes of Flp-In TREx 293 cells expressing mouse GPR84-Gαi2; type: biochemical
Method: (§4) All data are presented as means ± SEM of at least three independent experiments. Data analysis and curve fitting was carried out using the GraphPad Prism software package version 8 (GraphPad, San Diego). For functional assays the concentration–response data were plotted on a log axis, with the untreated vehicle control plotted at 1 log unit lower than the lowest ligand concentration and fitted to a three parameter sigmoidal curve with the Hill slope constrained to equal 1. In case of inhibition experiments with antagonists, an equivalent analysis was followed to fit an inverse sigmoidal curve. To perform the statistical analysis of curve parameters, data from multiple experiments were fitted independently and resulting curve fit values were analyzed with indicated tests. Antagonism experiments carried out with multiple defined concentrations of antagonist were fit to a global Gaddum/Schild EC50 shift equation to estimate pA2 values for the antagonist. For radioligand binding data, saturation binding curves were generated by fitting the specific binding, which was obtained by subtracting nonspecific from total binding, to a one site specific binding model that allows calculation of Kd values for the radioligand at wild-type and mutant receptors.

mouse GPR84 = molecular target: T3, mouse GPR84 (Mus musculus, UniProt Q8CIM5); assay: cAMP regulation assay in CHO cells expressing mouse GPR84; type: cell-based; conditions: versus EC80 of 6-OAU
T3 construct: expressed in transfected cells
T3 sequence (Q8CIM5 whole entry): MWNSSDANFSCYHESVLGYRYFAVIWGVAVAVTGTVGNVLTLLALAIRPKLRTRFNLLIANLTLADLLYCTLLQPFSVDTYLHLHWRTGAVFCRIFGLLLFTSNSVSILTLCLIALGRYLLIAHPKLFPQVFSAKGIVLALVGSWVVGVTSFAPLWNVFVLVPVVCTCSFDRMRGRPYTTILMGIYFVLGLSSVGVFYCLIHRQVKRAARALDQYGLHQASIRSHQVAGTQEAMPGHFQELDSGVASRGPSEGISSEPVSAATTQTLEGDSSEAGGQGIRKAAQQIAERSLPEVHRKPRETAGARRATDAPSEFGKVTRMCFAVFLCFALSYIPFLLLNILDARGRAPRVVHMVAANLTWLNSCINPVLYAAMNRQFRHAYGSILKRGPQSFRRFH

rat GPR84 = molecular target: T4, rat GPR84 (Rattus norvegicus, UniProt D4ACK0); assay: cAMP regulation assay in CHO cells expressing rat GPR84; type: cell-based; conditions: versus EC80 of 6-OAU
T4 construct: expressed in transfected cells
T4 sequence (D4ACK0 1-396): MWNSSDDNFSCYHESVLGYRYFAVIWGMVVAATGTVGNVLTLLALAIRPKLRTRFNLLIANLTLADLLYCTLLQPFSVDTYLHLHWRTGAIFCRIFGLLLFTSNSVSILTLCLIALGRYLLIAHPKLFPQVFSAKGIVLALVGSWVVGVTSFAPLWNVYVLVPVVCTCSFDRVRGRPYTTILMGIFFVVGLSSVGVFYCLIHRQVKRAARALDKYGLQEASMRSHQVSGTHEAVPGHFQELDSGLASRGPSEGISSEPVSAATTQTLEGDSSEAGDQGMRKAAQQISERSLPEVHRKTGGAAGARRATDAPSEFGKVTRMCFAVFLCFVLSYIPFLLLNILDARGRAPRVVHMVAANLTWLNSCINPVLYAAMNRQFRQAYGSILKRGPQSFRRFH

dog GPR84 = molecular target: T5, dog GPR84 (Canis lupus familiaris, UniProt A0A8I3P3M6); assay: cAMP regulation assay in CHO cells expressing dog GPR84; type: cell-based; conditions: versus EC80 of 6-OAU
T5 construct: expressed in transfected cells
T5 sequence (A0A8I3P3M6 1-393): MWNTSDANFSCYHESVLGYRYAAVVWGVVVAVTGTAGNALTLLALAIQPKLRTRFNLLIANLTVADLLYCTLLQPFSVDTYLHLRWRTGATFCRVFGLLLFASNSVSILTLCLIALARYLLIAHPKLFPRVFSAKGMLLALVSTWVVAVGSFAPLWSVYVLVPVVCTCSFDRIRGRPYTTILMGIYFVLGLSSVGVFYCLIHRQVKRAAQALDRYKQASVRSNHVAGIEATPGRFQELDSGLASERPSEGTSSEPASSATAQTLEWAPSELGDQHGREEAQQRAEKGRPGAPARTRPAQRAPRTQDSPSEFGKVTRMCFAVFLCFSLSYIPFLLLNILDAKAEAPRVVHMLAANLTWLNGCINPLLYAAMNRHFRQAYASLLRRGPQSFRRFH

pig GPR84 = molecular target: T6, pig GPR84 (Sus scrofa, UniProt I6WJ99); assay: cAMP regulation assay in CHO cells expressing pig GPR84; type: cell-based; conditions: versus EC80 of 6-OAU
T6 construct: expressed in transfected cells
T6 sequence (I6WJ99 1-396): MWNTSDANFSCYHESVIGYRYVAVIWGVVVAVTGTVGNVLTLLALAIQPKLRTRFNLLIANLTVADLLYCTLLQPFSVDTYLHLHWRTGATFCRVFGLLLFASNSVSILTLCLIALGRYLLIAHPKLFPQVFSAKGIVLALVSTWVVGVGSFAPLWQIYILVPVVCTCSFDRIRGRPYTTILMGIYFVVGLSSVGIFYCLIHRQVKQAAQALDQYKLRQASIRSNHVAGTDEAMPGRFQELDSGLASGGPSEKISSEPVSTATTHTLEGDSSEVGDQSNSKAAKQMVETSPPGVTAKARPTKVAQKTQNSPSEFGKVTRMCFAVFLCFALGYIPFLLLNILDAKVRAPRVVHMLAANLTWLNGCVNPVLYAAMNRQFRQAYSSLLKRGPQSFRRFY

macaque GPR84 = macaque GPR84 (Macaca mulatta, UniProt F6W0J1); assay: cAMP regulation assay in CHO cells expressing macaque GPR84; type: cell-based; conditions: versus EC80 of 6-OAU
macaque GPR84, sequence (F6W0J1 1-396): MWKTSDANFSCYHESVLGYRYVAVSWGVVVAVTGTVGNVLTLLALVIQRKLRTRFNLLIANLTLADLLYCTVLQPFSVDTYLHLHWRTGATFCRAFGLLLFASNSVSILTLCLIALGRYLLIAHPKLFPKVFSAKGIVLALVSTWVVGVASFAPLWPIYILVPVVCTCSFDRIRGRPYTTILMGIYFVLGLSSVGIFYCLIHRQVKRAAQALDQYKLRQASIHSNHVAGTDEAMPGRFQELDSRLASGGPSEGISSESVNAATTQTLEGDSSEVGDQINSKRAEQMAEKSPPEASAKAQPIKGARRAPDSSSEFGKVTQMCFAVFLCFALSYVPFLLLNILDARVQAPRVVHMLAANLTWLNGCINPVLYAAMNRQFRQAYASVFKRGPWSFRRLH

[7] = tested on: Thr^102Ala, Ser^363Gly mouse GPR84; assay: [^35S]GTPγS binding assay, Thr102Ala-Ser363Gly mouse GPR84 mutant; type: biochemical
Method: as §3, §4

[8] = tested on: Ala^102Thr, Gly^363Ser human GPR84; assay: [^35S]GTPγS binding assay, Ala102Thr-Gly363Ser human GPR84 mutant; type: biochemical
Method: as §3, §4

[9] = molecular target: T7, ECL3/TM7 chimeric human/mouse GPR84 (Mus musculus, UniProt Q8CIM5, G345V/R346Q/S363G/V354L); assay: Antagonism of 2-HTP at ECL3/TM7 human/mouse GPR84 chimera in Flp-In TREx 293 cells; type: cell-based
T7 construct: expressed in transfected cells; host or cells: Flp-In TREx 293 cells
T7 sequence (Q8CIM5 whole entry G345V/R346Q/V354L/S363G): as the sequence (Q8CIM5 whole entry) above, with G345V, R346Q, V354L, S363G counted along it
Text: (§5) Chimeric human-mouse GPR84-HA constructs were generated using synthetic DNA sequences purchased from Eurofins Genomics (Luxembourg), that were then subcloned in-frame into the BamH1 and Xho1 sites of pcDNA5/FRT/TO.

Humanized mGPR84 = molecular target: T8, Humanized mGPR84 (Homo sapiens, UniProt Q9NQS5, A294V/A296R/A298P/D231Q/D276G/G248R/H223R/H226Q/I278G/I301T/K216G/K284Q/K289R/K302A/L245V/M286I/N225H/N279I/P291L/P300E/P308T/Q210R/Q299R/Q379H/Q48R/R218H/R229G/R237H/R244G/R282A/R390Q/S280R/S295H/S310A/S311P/V274A); assay: Antagonism of 2-HTP at humanized mGPR84 chimera in Flp-In TREx 293 cells; type: cell-based; conditions: all ECL and TMD residues human in mouse backbone
T8 construct: expressed in transfected cells; host or cells: Flp-In TREx 293 cells
T8 sequence (Q9NQS5 with tags, fused parts or gaps with the stated changes): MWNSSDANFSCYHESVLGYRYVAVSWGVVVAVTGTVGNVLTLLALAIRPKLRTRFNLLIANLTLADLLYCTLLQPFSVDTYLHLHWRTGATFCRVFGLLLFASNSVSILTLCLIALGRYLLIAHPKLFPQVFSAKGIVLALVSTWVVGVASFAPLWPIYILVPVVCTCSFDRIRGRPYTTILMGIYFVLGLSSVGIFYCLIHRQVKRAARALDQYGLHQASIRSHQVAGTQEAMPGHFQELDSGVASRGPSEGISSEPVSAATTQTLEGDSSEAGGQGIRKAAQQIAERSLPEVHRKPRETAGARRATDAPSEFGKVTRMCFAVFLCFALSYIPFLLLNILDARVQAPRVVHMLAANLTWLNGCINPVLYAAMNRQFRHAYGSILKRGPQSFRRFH
Text: as §5

[10] = molecular target: T2, GPR84 in LPS-treated THP-1 cells; assay: [^35S]GTPγS binding assay, membranes of LPS-treated THP-1 cells; type: biochemical; conditions: LPS-treated THP-1 membranes
[11] = molecular target: T1, human GPR84-Gαi2 fusion protein; assay: cAMP assay in Flp-In TREx 293 cells expressing human GPR84-Gαi2; type: cell-based
Method: cAMP experiments were performed using Flp-In T-REx293 cells induced to express the receptor of interest or CHO-K1 cells stably expressing the orthologue of interest. Experiments were carried out using a homogeneous time-resolved FRET-based detection kit (CisBio, Codolet, France) according to the manufacturer’s protocol. For the assay cells were plated at 5000 cells/well in low-volume 384-well plates. The ability of agonists to inhibit 1 μM forskolin-induced cAMP production was assessed following a preincubation for 15 min with antagonist compounds, then a further 30 min incubation with agonist compounds. Reactions were stopped according to the manufacturer’s instructions and the output was measured with a PHERAstar FS plate reader (BMG Labtech, Aylesbury, UK).

GPR84 in RAW264.7 cells = GPR84 in RAW264.7 cells (Mus musculus, UniProt Q8CIM5); assay: [^35S]GTPγS binding assay, membranes of RAW264.7 cells; conditions: RAW264.7 membranes
GPR84 in RAW264.7 cells, sequence (Q8CIM5 whole entry): as the sequence (Q8CIM5 whole entry) above

**Q.** For Ic1ccc(-c2nnc(Cc3c[nH]c4ccccc34)nc2-c2ccc(I)cc2)cc1 [Compound 441, 3-((5,6-Bis(4-iodophenyl)-1,2,4-triazin-3-yl)methyl)-1H-indole], which pA2 [1] is on record?
**A.** 8.07 ± 0.02

**Q.** c1ccc(-c2nnc(Cc3c[nH]c4ccccc34)nc2-c2ccccc2)cc1 [[^3H]140, [^3H]3-((5,6-diphenyl-1,2,4-triazin-3-yl)methyl)-1H-indole] was tested. Which specific binding [2] did it give?
**A.** unable to detect specific binding

**Q.** And the direct binding [3]?
**A.** not possible to measure binding

**Q.** And the specific binding [4]?
**A.** no specific binding

**Q.** What about the Bmax [5] of the same compound?
**A.** 905 ± 93 fmol/mg membrane protein

**Q.** Which results are given for CC(=O)OCc1ccc(-c2nnc(Cc3c[nH]c4ccccc34)nc2-c2ccccc2)cc1 [Compound 021, 4-(3-((1H-indol-3-yl)methyl)-5-phenyl-1,2,4-triazin-6-yl)benzyl acetate]?
**A.** pA2 [1]: 9.31 ± 0.10; Gaddum/Schild slope [1]: 1.14 ± 0.03

**Q.** Which results are given for CC(=O)OCc1ccc(-c2nc(Cc3c[nH]c4ccccc34)nnc2-c2ccccc2)cc1 [Compound 020, 4-(3-((1H-indol-3-yl)methyl)-6-phenyl-1,2,4-triazin-5-yl)benzyl acetate]?
**A.** pA2 [1]: 9.19 ± 0.10; Gaddum/Schild slope [1]: 1.27 ± 0.03; pA2 ([6]; Gaddum/Schild analysis versus 2-HTP, wild-type mouse GPR84): < 6.0; fold higher concentrations than required to antagonize human GPR84 ([6]; limited effects at mouse GPR84): at least 1000 fold

**Q.** c1ccc(-c2nnc(Cc3c[nH]c4ccccc34)nc2-c2ccccc2)cc1 [Compound 140, 3-((5,6-Diphenyl-1,2,4-triazin-3-yl)methyl)-1H-indole] was tested. Which IC50 (mouse GPR84) did it give?
**A.** > 10000 nM

**Q.** And the IC50 (rat GPR84)?
**A.** 8700 nM

**Q.** What about the IC50 (dog GPR84) of the same compound?
**A.** 8.1 nM

**Q.** And the IC50 (pig GPR84)?
**A.** 5.6 nM

**Q.** And the IC50 (macaque GPR84)?
**A.** 6.4 nM

**Q.** What does the source list for COc1ccc(-c2nnc(Cc3c[nH]c4ccccc34)nc2-c2ccc(OC)cc2)cc1 [Compound 837, 3-((5,6-Bis(4-methoxyphenyl)-1,2,4-triazin-3-yl)methyl)-1H-indole]?
**A.** block of activation promoted by 2-HTP ([1]; EC80 of 2-HTP): fully block; block of activation promoted by 6-OAU ([1]; EC80 of 6-OAU): fully block; pA2 [1]: 8.90 ± 0.08 and 8.9; Gaddum/Schild slope [1]: 1.11 ± 0.04; IC50 ([1]; against an EC80 of embelin): < 100 nM; reversal of activation produced by DIM ([1]; allosteric activator DIM): fully reversed; antagonism of mouse GPR84 ([6]; EC80 of 2-HTP): no significant capacity to antagonize; affinity (from pA2) ([6]; wild-type mouse GPR84): < 100 μM; block of activation by 2-HTP [7]: able to fully block activation by 2-HTP; fold higher affinity than at wild-type mouse GPR84 ([7]; from pA2): at least 5000 fold; fold lower affinity than at wild-type human GPR84 ([7]; from pA2): ~13 fold; pA2 ([7]; versus 2-HTP, mean ± SEM n = 3): 7.78 ± 0.08; block of activation by 2-HTP [8]: unable to block; fold lower affinity than at wild-type human GPR84 ([8]; from pA2): 380 fold; pA2 ([8]; versus 2-HTP, mean ± SEM n = 3): 6.33 ± 0.15; IC50 [9]: 363 nM; affinity at humanized chimera compared with wild-type human receptor (Humanized mGPR84): equal affinity; block of 2-HTP-induced [^35S]GTPγS binding [10]: blocked in a concentration-dependent and high potency manner; block of inhibition of forskolin-amplified cAMP levels by 2-HTP ([11]; 2-HTP): fully blocked; block of inhibition of forskolin-amplified cAMP levels by 6-OAU ([11]; 6-OAU): fully blocked; block of 2-HTP-induced [^35S]GTPγS binding (GPR84 in RAW264.7 cells): unable to produce such an effect
